Data as given in patent publication US4822635A, “Sweetening with L-aminodicarboxylic acid esters” (General Foods Corporation, priority 1988, dated 1989).
Where “and” joins values, the source holds several entries; their conditions need not be identical. Identical values can stand only once. Where a SMILES comes first, the peptide text is derived from it. The star is where a group is joined. tBu = CC(C)(C)*

Experiments:
[1] = prior art statement; cited from earlier work
[2] = Sweetness determination by a panel of experts: aqueous solutions matched to sucrose standard solutions (sucrose equivalence); design: key to Sucrose equivalence: weight % sucrose solution of matched sweetness
Description: A taste procedure for determination of sweetness merely involves the determination of sucrose equivalency. Sucrose equivalence for sweeteners are readily determined. The amount of a sweetener that is equivalent to a given weight percent sucrose can be determined by having a panel of tasters taste solutions of a sweetener at known concentrations and match its sweetness to standard solutions of sucrose.
The following examples further illustrate the invention. In the following examples, the sensory evaluation were obtained by a panel of experts using known weight percent aqueous solutions of the exemplified compounds and were matched to sucrose standard solutions.

[3] = Stability (half life) in buffer solutions at pH 3, 5 and 7 at 50, 75 or 100 °C; assay type: physicochemical; conditions: for half-life: buffer; for Stability in buffered solutions: buffered solutions at pH 3, 5 and 7; for Stability compared with aspartame: buffered solutions studied, except pH 3 at 100 °C
Procedure: α-L-Aspartyl-2-methylalanine[β(+)Fenchyl]ester (Example 9), α-L-Aspartyl-D-alanine[β(+)Fenchyl]ester, (Example 10) and aspartame L-Aspartyl-L-phenylalanine methyl ester were studied for stability at pH3, 5 and 7 in buffer solutions maintained at 50° C., 75° C., or 100° C., the following results were obtained: […]

[4] = concentration 0.05 (weight percent aqueous solution)
[5] = concentration 0.00185 (weight percent aqueous solution)
[6] = concentration 0.0025 (weight percent aqueous solution)
[7] = concentration 0.00375 (weight percent aqueous solution)
[8] = concentration 0.005 (weight percent aqueous solution)
[9] = concentration 0.00692 (so in the source), weight percent aqueous solution
[10] = concentration 0.0075 (weight percent aqueous solution)
[11] = concentration 0.01 (weight percent aqueous solution)
[12] = pH 3, buffer solution, 50 °C, pH 3
[13] = pH 3, buffer solution, 75 °C, pH 3
[14] = pH 3, buffer solution, 100 °C, pH 3
[15] = pH 5, buffer solution, 50 °C, pH 5
[16] = pH 5, buffer solution, 75 °C, pH 5
[17] = pH 5, buffer solution, 100 °C, pH 5
[18] = pH 7, buffer solution, 100 °C, pH 7
[19] = concentration 0.010 (weight percent aqueous solution)
[20] = concentration 0.025 (weight percent aqueous solution)
[21] = concentration 0.00012 (weight percent aqueous solution)
[22] = concentration 0.00024 (weight percent aqueous solution)
[23] = concentration 0.00047 (weight percent aqueous solution)
[24] = concentration 0.00092 (weight percent aqueous solution)

In the case of CCC(C)(C)OC[C@H](NC(=O)[C@@H](N)CC(=O)O)C(=O)OC [L-aspartyl-O-t-amyl-L-serine methyl ester], the “Sweetness (in words)” value [1] is listed as “significant sweetness”.
With C[C@@H](NC(=O)[C@@H](N)CC(=O)O)C(=O)OC1(C)CCCC1 [Example 6, N-L-Aspartyl-D-alanine (1-methyl-1-cyclopentyl)ester] the Sucrose equivalence [2, 4] was 2.0 and the “Sweetness relative to sucrose” value [2, 4] was 40 × Sucrose.
With CC(C)(NC(=O)[C@@H](N)CC(=O)O)C(=O)OC1C2(C)CCC(C2)C1(C)C (single isomer, unassigned) [Example 9, α-L-Aspartyl-2-methylalanine[β(+)Fenchyl]ester] the Sucrose equivalence [2, 5] was 5.7%, the “Sweetness relative to sucrose” value [2, 5] was 3100 × Sucrose and the Sucrose equivalence [2, 6] was 6.0% and 4.3% and 4.25%. For the same molecule, the “Sweetness relative to sucrose” value [2, 6] was 2400 × Sucrose and 1733 × Sucrose and 1700 × Sucrose, the Sucrose equivalence [2, 7] was 6.0% and the “Sweetness relative to sucrose” value [2, 7] was 1600 × Sucrose. For the same molecule, the Sucrose equivalence [2, 8] was 7.37% and 7.0% and 6.0%, the “Sweetness relative to sucrose” value [2, 8] was 1475 × Sucrose and 1400 × Sucrose and 1200 × Sucrose and the Sucrose equivalence [2, 9] was 3.5%. For the same molecule, the “Sweetness relative to sucrose” value [2, 9] was 3800 × Sucrose, the Sucrose equivalence [2, 10] was 8.5% and the “Sweetness relative to sucrose” value [2, 10] was 1133 × Sucrose. The Sucrose equivalence [2, 11] was 9.25% and 9.0%, the “Sweetness relative to sucrose” value [2, 11] was 925 × Sucrose and 900 × Sucrose and the half-life [3, 12] was 1540 h. For the same molecule, the half-life [3, 13] was 72 h, the half-life [3, 14] was 8.4 h and the half-life [3, 15] was 3600 h. It also gave a half-life [3, 16] of 360 h, a half-life [3, 17] of 33 h and a half-life [3, 18] of 67 h. For the same molecule, the “Stability compared with Example 10” value ([3]; buffered solutions) was “more stable”, the “Stability in buffered solutions” value [3] was “outstanding stability” and the “Stability compared with aspartame” value [3] was “better stability”.
For CC1CCC(C)C1OC(=O)[C@@H](C)NC(=O)[C@@H](N)CC(=O)O (stereo partly drawn) [Example 7, N-L-Aspartyl-D-alanine(2,5-dimethylcyclopentyl)ester], the Sucrose equivalence [2, 8] was 1.16, the “Sweetness relative to sucrose” value [2, 8] was 233 × Sucrose and the “Sweetness relative to sucrose” value [2, 11] was 230 × Sucrose. For the same molecule, the Sucrose equivalence [2, 19] was 2.3, the Sucrose equivalence [2, 20] was 4.82 and the “Sweetness relative to sucrose” value [2, 20] was 193 × Sucrose. For the same molecule, the Sucrose equivalence [2, 4] was 7.50 and the “Sweetness relative to sucrose” value [2, 4] was 150 × Sucrose.
In the case of COC(=O)[C@H](COC(C)(C)C)NC(=O)[C@@H](N)CC(=O)O [L-aspartyl-O-t-butyl-L-serine methyl ester] (H-Asp-Ser(tBu)-OMe), the “Sweetness (in words)” value [1] is listed as “significant sweetness”.
For COC(=O)[C@H](Cc1ccccc1)NC(=O)[C@@H](N)CC(=O)O [Aspartame, L-Aspartyl-L-phenylalanine methyl ester, reference compound] (H-Asp-Phe-OMe), the half-life [3, 13] was 21.6 h, the half-life [3, 14] was 5.3 h and the half-life [3, 16] was 26.4 h. For the same molecule, the half-life [3, 17] was 5.3 h, the half-life [3, 18] was less than 1 h and the “Stability compared with Example 9 and Example 10” value ([3]; pH 3, 100 °C, between Example 9 and Example 10) was “intermediate stability”.
In the case of C[C@@H](NC(=O)[C@@H](N)CC(=O)O)C(=O)OC1C(C)(C)CCC1(C)C [Example 1, L-Aspartyl-D-alanine(2,2,5,5-tetramethyl-1-cyclopentyl)ester], the Sucrose equivalence [2, 8] is reported as 2.5, the Sucrose equivalence [2, 19] is reported as 3.7 and the Sucrose equivalence [2, 20] is reported as 7.7. The Sucrose equivalence [2, 4] was 8.0.
For C[C@@H](NC(=O)[C@@H](N)CC(=O)O)C(=O)OC1C2(C)CCC(C2)C1(C)C (single isomer, unassigned) [Example 10, α-L-Aspartyl-D-alanine[β(+)Fenchyl]ester], the Sucrose equivalence [2, 21] was 0.6%, the “Sweetness relative to sucrose” value [2, 21] was 5000 × Sucrose and the Sucrose equivalence [2, 22] was 1.42%. For the same molecule, the “Sweetness relative to sucrose” value [2, 22] was 5900 × Sucrose, the Sucrose equivalence [2, 23] was 2.28% and the “Sweetness relative to sucrose” value [2, 23] was 4900 × Sucrose. For the same molecule, the Sucrose equivalence [2, 24] was 4.7%, the “Sweetness relative to sucrose” value [2, 24] was 5100 × Sucrose and the Sucrose equivalence [2, 5] was 6.5%. For the same molecule, the “Sweetness relative to sucrose” value [2, 5] was 3500 × Sucrose, the Sucrose equivalence [2, 6] was 6.0% and the “Sweetness relative to sucrose” value [2, 6] was 2400 × Sucrose. The Sucrose equivalence [2, 7] was 8.6%, the “Sweetness relative to sucrose” value [2, 7] was 2300 × Sucrose and the Sucrose equivalence [2, 8] was 9.3% and 10.0%. For the same molecule, the “Sweetness relative to sucrose” value [2, 8] was 1860 × Sucrose and 2000 × Sucrose, the Sucrose equivalence [2, 10] was 9.0% and the “Sweetness relative to sucrose” value [2, 10] was 1200 × Sucrose. For the same molecule, the Sucrose equivalence [2, 11] was 11.0%, the “Sweetness relative to sucrose” value [2, 11] was 1100 × Sucrose and the half-life [3, 12] was 528 h. For the same molecule, the half-life [3, 13] was 31.2 h, the half-life [3, 14] was 3.9 h and the half-life [3, 15] was 3140 h. The half-life [3, 16] was 122 h, the half-life [3, 17] was 14 h and the half-life [3, 18] was 10 h. The “Stability in buffered solutions” value [3] was “outstanding stability” and the “Stability compared with aspartame” value [3] was “better stability”.
With CC1CCC(C)C1OC(=O)C1(NC(=O)[C@@H](N)CC(=O)O)CC1 (stereo partly drawn) [L-Aspartyl-1-aminocyclopropyl-1-carboxylicacid, 2,5-dimethyl-1-cyclopentyl ester] the Sucrose equivalence [2, 8] was 1.0, the “Sweetness relative to sucrose” value [2, 8] was 200 × Sucrose and the “Sweetness relative to sucrose” value [2, 11] was 217 × Sucrose. The Sucrose equivalence [2, 19] was 2.2, the Sucrose equivalence [2, 20] was 3.3 and the “Sweetness relative to sucrose” value [2, 20] was 133 × Sucrose.
Molecule CC(C)(NC(=O)[C@@H](N)CC(=O)O)C(=O)OC1C(C)(C)CCC1(C)C [Example 2, N-(L-Aspartyl)-2-methylalanine(2,2,5,5-tetramethyl-1-cyclopentyl)ester] has a Sucrose equivalence [2, 8] of 2.00, a Sucrose equivalence [2, 19] of 3.25 and a Sucrose equivalence [2, 20] of 5.75.
